Patent publication US20150105252A1, “SUBSTITUTED PYRAZOLES AS HERBICIDES” (E I DU PONT DE NEMOURS AND COMPANY, priority 2013, published 2015)

Assays:
Test in all cases: Test C postemergence
[1] = system: ragweed; type: in vivo, Ambrosia elation
From the text: (§1) Seeds of plant species selected from blackgrass (Alopecurus myosuroides), ryegrass, Italian (Italian ryegrass, Lolium multiflorum), wheat (winter wheat, Triticum aestivum), galium (catchweed bedstraw, Galium aparine), corn (Zea mays), crabgrass, large (large crabgrass, Digitaria sanguinalis), foxtail, giant (giant foxtail, Setaria faberii), johnsongrass (Sorghum halepense), lambsquarters (Chenopodium album), morningglory (Ipomoea coccinea), nutsedge, yellow (yellow nutsedge, Cyperus esculentus), pigweed (redroot pigweed, Amaranthus retroflexus), ragweed (common ragweed, Ambrosia elation), soybean (Glycine max), barnyardgrass (Echinochloa crus-galli), oilseed rape (Brassica napus), waterhemp (common waterhemp, Amaranthus rudis), oat, wild (wild oat, Avena fatua), kochia (Kochia scoparia), Surinam grass (Brachiaria decumbens), foxtail, green (green foxtail, Setaria viridis), goosegrass (Eleusine indica), bromegrass, downy (downy bromegrass, Bromus tectorum), nightshade (eastern black nightshade, Solanum ptycanthum), cocklebur (common cocklebur, Xanthium strumarium), cupgrass, woolly (woolly cupgrass, Eriochloa villosa), bermudagrass (Cynodon dactylon), sunflower, (common oilseed sunflower, Helianthus annuus), Russian thistle (Salsola kali), and velvetleaf (Abutilon theophrasti) were planted into a blend of loam soil and sand and treated preemergence with test chemicals formulated in a non-phytotoxic solvent mixture which included a surfactant.
(§2) At the same time, plants selected from these crop and weed species and also chickweed (common chickweed, Stellaria media), canarygrass (littleseed canarygrass, Phalaris minor), and deadnettle (henbit deadnettle, Lamium amplexicaule), were planted in pots containing Redi-Earth® planting medium (Scotts Company, 14111 Scottslawn Road, Marysville, Ohio 43041) comprising spaghnum peat moss, vermiculite, wetting agent and starter nutrients and treated with postemergence applications of test chemicals formulated in the same manner. Plants ranged in height from 2 to 18 cm (1- to 4-leaf stage) for postemergence treatments. Treated plants and controls were maintained in a greenhouse for 13 to 15 days, after which time all species were compared to controls and visually evaluated. Plant response ratings, summarized in Table C, are based on a scale of 0 to 100 where 0 is no effect and 100 is complete control. A dash (-) response means no test result.

[2] = system: barnyardgrass; type: in vivo, Echinochloa crus-galli
Method in brief: (§3)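 Visual rating, 0–100 scale (0 no effect, 100 complete control), vs untreated controls after 13–15 d greenhouse. Pre: seeds in loam/sand, treated at sowing. Post: plants in peat-based mix, 1- to 4-leaf (2–18 cm). Solvent + surfactant formulation, non-phytotoxic.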

[3] = system: oat, wild; type: in vivo, Avena fatua
Method in brief: as §3

[4] = system: blackgrass; type: in vivo, Alopecurus myosuroides
Method in brief: as §3

[5] = system: pigweed; type: in vivo, Amaranthus retroflexus
From the text: as §1, §2

[6] = system: wheat; type: in vivo, Triticum aestivum
From the text: as §1, §2

[7] = system: johnsongrass; type: in vivo, Sorghum halepense
From the text: as §1, §2

[8] = system: velvetleaf; type: in vivo, Abutilon theophrasti
From the text: as §1, §2

[9] = system: corn; type: in vivo, Zea mays
Method in brief: as §3

[10] = system: soybean; type: in vivo, Glycine max
From the text: as §1, §2

[11] = system: ryegrass, Italian; type: in vivo, Lolium multiflorum
From the text: as §1, §2

[12] = system: kochia; type: in vivo, Kochia scoparia
Method in brief: as §3

[13] = system: foxtail, giant; type: in vivo, Setaria faberii
Method in brief: as §3

[14] = system: chickweed; type: in vivo, Stellaria media
From the text: as §1, §2

[15] = system: galium; type: in vivo, Galium aparine
From the text: as §1, §2

[16] = system: lambsquarters; type: in vivo, Chenopodium album
Method in brief: as §3

[17] = system: crabgrass, large; type: in vivo, Digitaria sanguinalis
Method in brief: as §3

[18] = Postemergence, 31 g ai/ha, visually evaluated after 13 to 15 days
[19] = postemergence, 62 g ai/ha, scale 0 to 100
[20] = postemergence, 250 g ai/ha, scale 0 to 100 (0 no effect, 100 complete control)
[21] = postemergence, 125 g ai/ha, scale 0 to 100, 0 no effect, 100 complete control

CCc1cc(C(=O)NC2CC2)nn1Cc1ccnc(OC(F)F)c1 [Compound 98]
95: Plant response rating, Lambsquarters [16, 20]
20: Plant response rating, Wheat [6, 20] | Plant response rating, Johnsongrass [7, 20] | Velvetleaf plant response rating [8, 19] | Plant response rating, Velvetleaf [8, 21]
30: Plant response rating, Pigweed [5, 21]
60: Plant response rating (scale of 0 to 100 where 0 is no effect and 100 is complete control), Lambsquarters [16, 18]
65: Plant response rating, Galium [15, 21]
90: Plant response rating, Pigweed [5, 20] | Plant response rating, Galium [15, 20] | Plant response rating, Lambsquarters [16, 21]
85: Plant response rating, Soybean [10, 20] | Plant response rating, Soybean [10, 21] | Plant response rating, Kochia [12, 20] | Plant response rating, Kochia [12, 21] | Plant response rating, Foxtail, Giant [13, 20]
25: Plant response rating, Oat, Wild [3, 20] | Plant response rating, Blackgrass [4, 21]
50: Plant response rating, Velvetleaf [8, 20] | Foxtail, Giant plant response rating [13, 19] | Plant response rating (scale of 0 to 100 where 0 is no effect and 100 is complete control), Galium [15, 18] | Plant response rating, Crabgrass, Large [17, 20]
100: Plant response rating (scale of 0 to 100 where 0 is no effect and 100 is complete control), Chickweed [14, 18] | Chickweed plant response rating [14, 19] | Plant response rating, Chickweed [14, 20] | Plant response rating, Chickweed [14, 21]
10: Plant response rating, Oat, Wild [3, 21] | Plant response rating (scale of 0 to 100 where 0 is no effect and 100 is complete control), Pigweed [5, 18] | Pigweed plant response rating [5, 19] | Plant response rating, Corn [9, 20] | Ryegrass, Italian plant response rating [11, 19] | Plant response rating, Ryegrass, Italian [11, 20] | Plant response rating, Ryegrass, Italian [11, 21] | Plant response rating (scale of 0 to 100 where 0 is no effect and 100 is complete control), Crabgrass, Large [17, 18]
75: Plant response rating, Ragweed [1, 20] | Plant response rating, Ragweed [1, 21] | Kochia plant response rating [12, 19]
55: Plant response rating, Foxtail, Giant [13, 21] | Galium plant response rating [15, 19]
0: Plant response rating (scale of 0 to 100 where 0 is no effect and 100 is complete control), Barnyardgrass [2, 18] | Barnyardgrass plant response rating [2, 19] | Plant response rating (scale of 0 to 100 where 0 is no effect and 100 is complete control), Johnsongrass [7, 18]
40: Plant response rating, Blackgrass [4, 20] | Plant response rating (scale of 0 to 100 where 0 is no effect and 100 is complete control), Kochia [12, 18]
15: Plant response rating (scale of 0 to 100 where 0 is no effect and 100 is complete control), Ragweed [1, 18] | Plant response rating (scale of 0 to 100 where 0 is no effect and 100 is complete control), Velvetleaf [8, 18] | Crabgrass, Large plant response rating [17, 19]
35: Ragweed plant response rating [1, 19] | Plant response rating, Barnyardgrass [2, 20]
70: Plant response rating (scale of 0 to 100 where 0 is no effect and 100 is complete control), Soybean [10, 18] | Soybean plant response rating [10, 19] | Lambsquarters plant response rating [16, 19]
5: Plant response rating, Barnyardgrass [2, 21] | Plant response rating (scale of 0 to 100 where 0 is no effect and 100 is complete control), Oat, Wild [3, 18] | Oat, Wild plant response rating [3, 19] | Plant response rating (scale of 0 to 100 where 0 is no effect and 100 is complete control), Blackgrass [4, 18] | Blackgrass plant response rating [4, 19] | Plant response rating (scale of 0 to 100 where 0 is no effect and 100 is complete control), Wheat [6, 18] | Wheat plant response rating [6, 19] | Plant response rating, Wheat [6, 21] | Johnsongrass plant response rating [7, 19] | Plant response rating, Johnsongrass [7, 21] | Plant response rating (scale of 0 to 100 where 0 is no effect and 100 is complete control), Corn [9, 18] | Corn plant response rating [9, 19] | Plant response rating, Corn [9, 21] | Plant response rating (scale of 0 to 100 where 0 is no effect and 100 is complete control), Ryegrass, Italian [11, 18]
45: Plant response rating (scale of 0 to 100 where 0 is no effect and 100 is complete control), Foxtail, Giant [13, 18] | Plant response rating, Crabgrass, Large [17, 21]
